# Reference: patent publication US20250361230A1, “LATS Inhibitors and Uses Thereof” (The USA, as Represented by the Secretary, Dept. of Heath …, priority 2022, published 2025)
# Read-outs that look alike come from different tables or passages of the source.
# Target: T1, LATS1 (Homo sapiens, UniProt O95835)
# T1 sequence (O95835 1-1130): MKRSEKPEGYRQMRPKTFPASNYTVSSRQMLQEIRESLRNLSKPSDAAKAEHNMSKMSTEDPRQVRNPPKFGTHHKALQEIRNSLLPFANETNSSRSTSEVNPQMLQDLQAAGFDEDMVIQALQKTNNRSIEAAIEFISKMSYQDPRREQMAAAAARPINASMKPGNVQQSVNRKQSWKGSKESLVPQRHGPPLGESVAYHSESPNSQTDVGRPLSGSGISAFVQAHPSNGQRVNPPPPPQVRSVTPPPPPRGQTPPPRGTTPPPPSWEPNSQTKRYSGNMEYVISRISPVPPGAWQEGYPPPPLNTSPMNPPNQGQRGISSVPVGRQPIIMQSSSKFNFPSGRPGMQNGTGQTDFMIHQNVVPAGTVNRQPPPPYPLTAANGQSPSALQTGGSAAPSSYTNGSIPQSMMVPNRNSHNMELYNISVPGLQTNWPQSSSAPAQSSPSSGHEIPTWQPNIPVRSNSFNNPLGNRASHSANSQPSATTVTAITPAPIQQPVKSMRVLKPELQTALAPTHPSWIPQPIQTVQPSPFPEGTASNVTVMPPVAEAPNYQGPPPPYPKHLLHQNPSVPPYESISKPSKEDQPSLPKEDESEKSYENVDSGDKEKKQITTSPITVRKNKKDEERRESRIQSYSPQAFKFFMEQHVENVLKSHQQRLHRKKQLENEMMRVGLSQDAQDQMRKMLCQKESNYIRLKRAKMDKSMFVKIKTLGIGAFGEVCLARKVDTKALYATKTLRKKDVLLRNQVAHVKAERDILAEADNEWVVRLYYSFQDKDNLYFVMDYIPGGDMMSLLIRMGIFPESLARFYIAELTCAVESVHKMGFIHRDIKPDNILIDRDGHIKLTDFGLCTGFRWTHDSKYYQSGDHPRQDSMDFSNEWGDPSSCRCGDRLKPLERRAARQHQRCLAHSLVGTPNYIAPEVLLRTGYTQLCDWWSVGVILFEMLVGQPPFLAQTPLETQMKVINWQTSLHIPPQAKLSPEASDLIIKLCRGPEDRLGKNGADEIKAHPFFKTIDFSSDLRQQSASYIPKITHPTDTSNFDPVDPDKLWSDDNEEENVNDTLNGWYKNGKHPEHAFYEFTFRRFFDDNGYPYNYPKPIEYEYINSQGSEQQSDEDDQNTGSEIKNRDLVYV
# Test: RBC HotSpot kinase assay (33P-ATP, P81 filter-binding), LATS1
# Format: biochemical
# Details: read-out: LATS1 IC50
# Method in brief: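 Substrate in fresh buffer receives cofactors, then kinase, then compound in DMSO for a 20 min room-temperature preincubation. Reactions start with 33P-ATP and run 2 h; phosphorylation is read by P81 filter binding, and IC50 comes from a 10-point curve.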
# [1] = Table 32, biochemical kinase assay
IC50 [1] [nM],IC50 (biochemical kinase inhibition) [nM],Structure (SMILES)
1.8,–,"NCC(O)(c1ccc(Cl)cc1)c1ccc(-c2ccnc3[nH]ccc23)cc1 (centres unmarked) [Compound 1001, 1-(4-(1H-pyrrolo[2,3-b]pyridin-4-yl)phenyl)-2-amino-1-(4-chlorophenyl)ethan-1-ol]"
5.7,–,"NCC(O)(c1ccc(Cl)cc1)c1ccc(-c2ccnc3[nH]cc(F)c23)cc1 (centres unmarked) [Compound 1002, 2-amino-1-(4-chlorophenyl)-1-(4-(3-fluoro-1H-pyrrolo[2,3-b]pyridin-4-yl)phenyl)ethan-1-ol]"
4,–,"COC(=O)c1c[nH]c2nccc(-c3ccc(C(O)(CN)c4ccc(Cl)cc4)cc3)c12 (centres unmarked) [Compound 1004, Methyl 4-(4-(2-amino-1-(4-chlorophenyl)-1-hydroxyethyl)phenyl)-1H-pyrrolo[2,3-b]pyridine-3-carboxylate]"
5.1,–,"NCC(O)(c1ccc(Cl)cc1)c1ccc(-c2ccnc3[nH]cc(Br)c23)cc1 (centres unmarked) [Compound 1005, 2-amino-1-(4-(3-bromo-1H-pyrrolo[2,3-b]pyridin-4-yl)phenyl)-1-(4-chlorophenyl)ethan-1-ol]"
23,–,"NCC(O)(c1ccc(Cl)cc1)c1ccc(-c2ccnc3[nH]cc(-c4ccccc4)c23)cc1 (centres unmarked) [Compound 1006, 2-amino-1-(4-chlorophenyl)-1-(4-(3-phenyl-1H-pyrrolo[2,3-b]pyridin-4-yl)phenyl)ethan-1-ol]"
4.3,–,"NCC(O)(c1ccc(Cl)cc1)c1ccc(-c2ccnc3[nH]cc(-c4cccnc4)c23)cc1 (centres unmarked) [Compound 1007, 2-amino-1-(4-chlorophenyl)-1-(4-(3-(pyridin-3-yl)-1H-pyrrolo[2,3-b]pyridin-4-yl)phenyl)ethan-1-ol]"
0.9,–,"NCC(O)(c1ccc(Cl)cc1)c1ccc(-c2ccnc3[nH]cc(Br)c23)nc1 (centres unmarked) [Compound 1011, 2-amino-1-(6-(3-bromo-1H-pyrrolo[2,3-b]pyridin-4-yl)pyridin-3-yl)-1-(4-chlorophenyl)ethan-1-ol]"
3.7,–,"NCC(=O)NCC(O)(c1ccc(Cl)cc1)c1ccc(-c2ccnc3[nH]cc(Cl)c23)cc1 (centres unmarked) [Compound 1021, 2-amino-N-(2-(4-(3-chloro-1H-pyrrolo[2,3-b]pyridin-4-yl)phenyl)-2-(4-chlorophenyl)-2-hydroxyethyl) acetamide]"
–,10.9,"Cc1cc(-c2ccnc3[nH]cc(C#N)c23)cc(F)c1[C@@]1(O)[C@H](C)CN(C2CCS(=O)(=O)CC2)C[C@@H]1C [Compound 2002, 4-(4-((3S,4s,5R)-1-(1,1-dioxidotetrahydro-2H-thiopyran-4-yl)-4-hydroxy-3,5-dimethylpiperidin-4-yl)-3-fluoro-5-methylphenyl)-1H-pyrrolo[2,3-b]pyridine-3-carbonitrile]"
–,6.7,"Cc1cc(-c2ccnc3[nH]cc(C#N)c23)cc(F)c1[C@@]1(O)[C@H](C)CN(C(=O)CN)C[C@@H]1C [Compound 2004, 4-(3-fluoro-4-((3S,4s,5R)-1-glycyl-4-hydroxy-3,5-dimethylpiperidin-4-yl)-5-methylphenyl)-1H-pyrrolo[2,3-b]pyridine-3-carbonitrile]"
–,3.3,"Cc1cc(-c2ccnc3[nH]cc(C#N)c23)ccc1[C@@]1(O)[C@H](C)CN(C(=O)CN)C[C@@H]1C [Compound 2005, 4-(4-((3S,4s,5R)-1-glycyl-4-hydroxy-3,5-dimethylpiperidin-4-yl)-3-methylphenyl)-1H-pyrrolo[2,3-b]pyridine-3-carbonitrile]"
–,8.5,"Cc1cc(-c2ccnc3[nH]cc(C#N)c23)cc(F)c1[C@@]1(O)[C@H](C)CN(C(=O)[C@H](N)CO)C[C@@H]1C [Compound 2007, 4-(4-((3S,4S,5R)-1-(D-seryl)-4-hydroxy-3,5-dimethylpiperidin-4-yl)-3-fluoro-5-methylphenyl)-1H-pyrrolo[2,3-b]pyridine-3-carbonitrile]"
–,5.2,"Cc1cc(-c2ccnc3[nH]cc(C#N)c23)cc(F)c1[C@@]1(O)[C@H](C)CN(C(=O)[C@](C)(N)CO)C[C@@H]1C [Compound 2008, 4-(4-((3S,4s,5R)-1-(2-amino-3-hydroxy-2-methylpropanoyl)-4-hydroxy-3,5-dimethylpiperidin-4-yl)-3-fluoro-5-methylphenyl)-1H-pyrrolo[2,3-b]pyridine-3-carbonitrile]"
–,25,"Cc1cc(-c2ccnc3[nH]cc(C#N)c23)cc(F)c1[C@@]1(O)[C@H](C)CN(C(=O)[C@H](C)N)C[C@@H]1C [Compound 2011, 4-(4-((3S,4R,5R)-1-(L-alanyl)-4-hydroxy-3,5-dimethylpiperidin-4-yl)-3-fluoro-5-methylphenyl)-1H-pyrrolo[2,3-b]pyridine-3-carbonitrile]"
–,5,"CNCC(=O)N1C[C@@H](C)[C@](O)(c2c(C)cc(-c3ccnc4[nH]cc(C#N)c34)cc2F)[C@@H](C)C1 [Compound 2012, 4-(3-fluoro-4-((3S,4s,5R)-4-hydroxy-3,5-dimethyl-1-(methylglycyl)piperidin-4-yl)-5-methylphenyl)-1H-pyrrolo[2,3-b]pyridine-3-carbonitrile]"
–,7.1,"Cc1cc(-c2ccnc3[nH]cc(C#N)c23)cc(F)c1[C@@]1(O)[C@H](C)CN(C(=O)CNCC(F)(F)F)C[C@@H]1C [Compound 2014, 4-(3-fluoro-4-((3S,4s,5R)-4-hydroxy-3,5-dimethyl-1-((2,2,2-trifluoroethyl)glycyl)piperidin-4-yl)-5-methylphenyl)-1H-pyrrolo[2,3-b]pyridine-3-carbonitrile]"
–,4,"Cc1cc(-c2ccnc3[nH]cc(C#N)c23)cc(F)c1[C@@]1(O)[C@H](C)CN(C(=O)[C@@H](C)N)C[C@@H]1C [Compound 2015, 4-(4-((3S,4S,5R)-1-(D-alanyl)-4-hydroxy-3,5-dimethylpiperidin-4-yl)-3-fluoro-5-methylphenyl)-1H-pyrrolo[2,3-b]pyridine-3-carbonitrile]"
–,8.2,"Cc1cc(-c2ccnc3[nH]cc(C#N)c23)cc(F)c1[C@@]1(O)[C@H](C)CN(C(=O)C(N)C(F)(F)F)C[C@@H]1C (stereo partly drawn) [Compound 2017, 4-(4-((3S,4s,5R)-1-(2-amino-3,3,3-trifluoropropanoyl)-4-hydroxy-3,5-dimethylpiperidin-4-yl)-3-fluoro-5-methylphenyl)-1H-pyrrolo[2,3-b]pyridine-3-carbonitrile]"
–,4.4,"Cc1cc(-c2ccnc3[nH]cc(C#N)c23)cc(F)c1[C@@]1(O)[C@H](C)CN(C(=O)[C@H](CO)N(C)C)C[C@@H]1C [Compound 2023, 4-(4-((3S,4R,5R)-1-(dimethyl-L-seryl)-4-hydroxy-3,5-dimethylpiperidin-4-yl)-3-fluoro-5-methylphenyl)-1H-pyrrolo[2,3-b]pyridine-3-carbonitrile]"
–,6.6,"Cc1cc(-c2ccnc3[nH]cc(C#N)c23)cc(F)c1[C@@]1(O)[C@H](C)CNC[C@@H]1C [Compound 2024, 4-(3-fluoro-4-((3S,4s,5R)-4-hydroxy-3,5-dimethylpiperidin-4-yl)-5-methylphenyl)-1H-pyrrolo[2,3-b]pyridine-3-carbonitrile]"
